Reference: patent US20260041617A1, “COSMETIC COMPOSITION APPLICABLE TO THE SKIN AND BASED ON A VOLATILE MIXTURE OF ALKANES” (BIOSYNTHIS, priority 2022, published 2026)

Assay: Biodegradability by OECD 301F method (manometric respirometry test)
Protocol: For the purposes of the present invention, the OECD 301F method makes it possible to assess the biodegradability of a substance by a manometric respirometry test.
The biodegradability of a volatile mixture of alkanes used in the cosmetic compositions applicable to the skin according to the invention was measured according to the OECD 301F method. For comparison, the degradation of isododecane (CAS 13475-82-6) was also measured with this method.
The OECD 301F method is used to characterize the ease of biodegradation of a substance by a manometric respirometry test.

In the case of `CC(CC(C)(C)C)CC(C)(C)C` [Isododecane (CAS 13475-82-6), 2,2,4,6,6-pentamethylheptane], the “Percentage of degradation according to the OECD 301F method” value was 0% and the “biodegradable according to the OECD 301F method” value (result in words) was “not biodegradable”.
